Data taken from patent US9302991B2, “Arylamide derivatives as TTX-S blockers” (RaQualia Pharma Inc., priority 2010, dated 2016).

These molecules were tested against T1, human Nav1.7 channels (Homo sapiens, UniProt Q15858) (assay: FRET assay, human Nav1.7 (EFS on FDSS)). Conditions: CHO cells expressing human Nav1.7, read-out: IC50 against Nav1.7.
T1 construct: expressed in transfected cells; host or cells: CHO
Type: cell-based
Protocol: The inhibitory activities of compounds against voltage gated sodium channels are determined by methodology well known in the art.
The ability of the aryl substituted carboxamide derivatives of the formula (I) to inhibit the NaV1.3, Nav1.7 and Nav1.5 channels is measured by Fluorescence Resonance Energy Transfer (FRET) assay and electrophysiology assay described below.
This screen is used to determine the effects of compounds on human Nav1.3, human Nav1.7, and human Nav1.5 channels, utilising electrical field stimulation (EFS) system in 96-well plate format on FDSS (Hamamatsu Photonics) platform. The change of membrane potential is monitored with FRET dye pair, oxonol (DiSBAC2(3)) and coumarin (CC2-DMPE).
CHO cells expressing human Nav1.7 channels are grown in T225 flasks, in a 5% CO2 humidified incubator to about 80% confluence. Media composition consists of HAM/F12 with Glutamax 1.10% FCS, 100 units/mL Penicillin and 100 microgram/mL Hygromycin.
Protocol: • Seed each cell lines (1×10^5 cells/well) into poly-D-lysine coated 96-well plates prior to experimentation. • Incubate at 37° C. in 5% CO2 for 24 hours. • Wash each well with assay buffer (140 mM NaCl, 4.5 mM KCl, 10 mM D-Glucose, 2 mM CaCl2, 1 mM MgCl2, 10 mM HEPES, pH 7.4 adjusted with NaOH) twice. • Add 1st loading solution containing 10 microM CC2-DMPE and 0.06% Pluronic F-127 in assay buffer. • Incubate the plate at room temperature in dark for 1 hour. • Remove 1st loading solution and added 2nd loading solution containing 15 microM DiSBAC2(3), 0.555 mM VABSC-1 and 0.004% Pluronic F-127 in assay buffer. • Place the plate under the dark at room temperature for 25 minutes. • Add compound solutions into the assay plate. • Set the assay plate in FDSS and placed an EFS device on the plate. • Measure EFS-induced fluorescent response by FDSS.
The data are analyzed and reported as normalized ratios of intensities measured at […]. The process of calculating these ratios is performed as follows:
This analysis is performed using a computerized specific program designed for FDSS generated data. Fluorescence ratio values are plotted using XLfit to determine an IC50 value for each compound.

T1 sequence (Q15858 whole entry): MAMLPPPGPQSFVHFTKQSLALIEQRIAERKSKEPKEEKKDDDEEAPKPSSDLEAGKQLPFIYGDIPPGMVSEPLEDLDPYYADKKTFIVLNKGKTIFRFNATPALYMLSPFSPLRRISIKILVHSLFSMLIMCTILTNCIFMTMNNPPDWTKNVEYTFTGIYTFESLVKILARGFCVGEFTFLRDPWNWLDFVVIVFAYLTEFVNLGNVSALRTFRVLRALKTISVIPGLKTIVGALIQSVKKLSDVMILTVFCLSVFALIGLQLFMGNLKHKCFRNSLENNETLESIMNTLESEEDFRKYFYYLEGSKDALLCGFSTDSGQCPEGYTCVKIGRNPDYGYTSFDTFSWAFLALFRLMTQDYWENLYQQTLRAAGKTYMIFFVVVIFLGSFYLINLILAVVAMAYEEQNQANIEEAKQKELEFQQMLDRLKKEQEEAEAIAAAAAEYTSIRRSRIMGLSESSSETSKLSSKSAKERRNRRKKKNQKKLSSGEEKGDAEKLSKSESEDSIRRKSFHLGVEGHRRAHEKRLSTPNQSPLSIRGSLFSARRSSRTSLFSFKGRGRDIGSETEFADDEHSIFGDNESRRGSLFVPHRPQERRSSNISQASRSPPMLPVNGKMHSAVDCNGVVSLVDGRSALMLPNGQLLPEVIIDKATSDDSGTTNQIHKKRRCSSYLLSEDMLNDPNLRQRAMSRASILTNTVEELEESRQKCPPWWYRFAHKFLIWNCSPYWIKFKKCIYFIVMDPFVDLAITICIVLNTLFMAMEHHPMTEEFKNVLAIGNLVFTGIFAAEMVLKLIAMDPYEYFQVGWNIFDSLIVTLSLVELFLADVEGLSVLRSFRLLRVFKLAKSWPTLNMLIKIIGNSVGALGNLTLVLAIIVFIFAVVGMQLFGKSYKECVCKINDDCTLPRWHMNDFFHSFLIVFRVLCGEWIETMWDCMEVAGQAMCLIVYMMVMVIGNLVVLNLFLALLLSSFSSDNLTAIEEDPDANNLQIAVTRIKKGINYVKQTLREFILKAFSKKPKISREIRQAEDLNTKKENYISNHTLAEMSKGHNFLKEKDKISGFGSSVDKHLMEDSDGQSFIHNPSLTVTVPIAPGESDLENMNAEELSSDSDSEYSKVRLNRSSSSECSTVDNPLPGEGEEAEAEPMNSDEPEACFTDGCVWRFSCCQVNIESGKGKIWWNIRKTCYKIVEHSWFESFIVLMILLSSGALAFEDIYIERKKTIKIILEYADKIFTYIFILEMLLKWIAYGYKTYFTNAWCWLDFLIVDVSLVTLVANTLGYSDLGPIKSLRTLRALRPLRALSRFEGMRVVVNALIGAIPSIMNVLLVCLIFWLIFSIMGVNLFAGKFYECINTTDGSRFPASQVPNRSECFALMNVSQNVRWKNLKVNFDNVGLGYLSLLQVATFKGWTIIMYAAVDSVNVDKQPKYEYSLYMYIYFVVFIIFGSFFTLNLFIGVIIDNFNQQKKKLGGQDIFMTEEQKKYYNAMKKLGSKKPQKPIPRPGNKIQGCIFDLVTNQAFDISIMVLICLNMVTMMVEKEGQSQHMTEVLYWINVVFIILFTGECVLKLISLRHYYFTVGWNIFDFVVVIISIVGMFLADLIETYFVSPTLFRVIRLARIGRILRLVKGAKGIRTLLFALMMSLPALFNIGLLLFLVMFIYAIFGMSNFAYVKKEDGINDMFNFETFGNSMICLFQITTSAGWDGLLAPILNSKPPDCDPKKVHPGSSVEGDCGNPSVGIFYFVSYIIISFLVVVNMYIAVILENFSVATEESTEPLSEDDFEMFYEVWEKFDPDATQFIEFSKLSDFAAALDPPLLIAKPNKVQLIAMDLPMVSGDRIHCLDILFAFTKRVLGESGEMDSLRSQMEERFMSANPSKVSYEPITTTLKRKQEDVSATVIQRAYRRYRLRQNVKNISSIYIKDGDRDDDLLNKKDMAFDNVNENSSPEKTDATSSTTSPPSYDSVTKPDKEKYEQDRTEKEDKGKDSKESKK

IC50, < 1000 nM:
CC(=O)Nc1cc(C(=O)N(C)C(C)c2cnc(OCC(F)(F)F)c(C)c2)cc(C)n1 (single isomer, unassigned) [Example 391, 2-acetamido-N,6-dimethyl-N-(1-(5-methyl-6-(2,2,2-trifluoroethoxy)pyridin-3-yl)ethyl)isonicotinamide]
CC(C)C(=O)Nc1cc(C(=O)NCc2ccc(OCC(F)(F)F)nc2N2CCOCC2)ccn1 [Example 282, 2-isobutyramido-N-((2-morpholino-6-(2,2,2-trifluoroethoxy)pyridin-3-yl)methyl)isonicotinamide]
CCC(=O)Nc1cc(C(=O)NCc2cnc(OCC(F)(F)F)c(OC)c2)cc(C)n1 [Example 270]
CCC(=O)Nc1cc(C(=O)NCc2ccnc(OCC(F)(F)F)c2)cc(C)n1 [Example 137, 2-methyl-6-propionamido-N-((2-(2,2,2-trifluoroethoxy)pyridin-4-yl)methyl)isonicotinamide]
COc1cc(C(C)NC(=O)c2cc(C)nc(NC(=O)C3CC3)n2)cnc1OCC(F)(F)F (single isomer, unassigned) [Example 194, 2-(cyclopropanecarboxamido)-N-(1-(5-methoxy-6-(2,2,2-trifluoroethoxy)pyridin-3-yl)ethyl)-6-methylpyrimidine-4-carboxamide]
CCOc1nc(OCC(F)(F)F)ccc1CNC(=O)c1cc(C)nc(NC(C)=O)c1 [Example 336, 2-acetamido-N-((2-ethoxy-6-(2,2,2-trifluoroethoxy)pyridin-3-yl)methyl)-6-methylisonicotinamide]
CCCC(=O)Nc1cc(C(=O)NCc2ccc(OCC(F)(F)F)nc2N2CCCCC2)ccn1 [Example 308, 2-butyramido-N-((2-(piperidin-1-yl)-6-(2,2,2-trifluoroethoxy)pyridin-3-yl)methyl)isonicotinamide]
CCC(=O)Nc1cc(C(=O)NCc2cccc(C(F)(F)F)c2OC)ccn1 [Example 1017, N-(2-methoxy-3-(trifluoromethyl)benzyl)-2-propionamidoisonicotinamide]
CC(=O)Nc1cc(C(=O)NC(C)c2cccc(OC(F)(F)F)c2)cc(C)n1 (single isomer, unassigned) [Example 420, 2-acetamido-6-methyl-N-(1-(3-(trifluoromethoxy)phenyl)ethyl)isonicotinamide]
Cc1cc(C(=O)NC(C)c2cnc(OCC(F)(F)F)c(Cl)c2)nc(NC(=O)C(C)C)n1 (single isomer, unassigned) [Example 216, N-(1-(5-chloro-6-(2,2,2-trifluoroethoxy)pyridin-3-yl)ethyl)-2-isobutyramido-6-methylpyrimidine-4-carboxamide]
CC(=O)Nc1cc(C(=O)NC(C)c2ccc(OCC(F)(F)F)c(Cl)c2)cc(C)n1 (single isomer, unassigned) [Example 676, 2-acetamido-N-(1-(3-chloro-4-(2,2,2-trifluoroethoxy)phenyl)ethyl)-6-methylisonicotinamide]
Cc1cc(C(=O)NC(C)c2ccc(OCC(F)F)c(C)c2)cc(NC(=O)C(C)C)n1 (single isomer, unassigned) [Example 865, N-(1-(4-(2,2-difluoroethoxy)-3-methyphenyl)ethyl)-2-isobutyramido-6-methylisonicotinamide]
Cc1cc(C(=O)NC(C)c2cnc(OCC(F)F)c(C)c2)cc(NC(=O)C2CC2)n1 (single isomer, unassigned) [Example 938, 2-(cyclopropanecarboxamido)-N-(1-(6-(2,2-difluoroethoxy)-5-methylpyridin-3-yl)ethyl)-6-methylisonicotinamide]
CC(=O)Nc1cc(C(=O)NCc2ccc(OCC(F)F)cc2C)cc(C)n1 [Example 1007, 2-acetamido-N-(4-(2,2-difluoroethoxy)-2-methylbenzyl)-6-methylisonicotinamide]
Cc1cc(C(=O)NC(C)c2ccc(OCC(F)(F)C(F)(F)F)nc2)cc(NC(=O)C2CC2)n1 (single isomer, unassigned) [Example 837, 2-(cyclopropanecarboxamido)-6-methyl-N-(1-(6-(2,2,3,3,3-pentafluoropropoxy)pyridin-3-yl)ethyl)isonicotinamide]
COc1cc(OC(F)(F)F)ccc1CNC(=O)c1cc(C)nc(NC(C)=O)c1 [Example 870, 2-acetamido-N-(2-methoxy-4-(trifluoromethoxy)benzyl)-6-methylisonicotinamide]
CCC(=O)Nc1nc(C)cc(C(=O)NC(C)c2cnc(OCC(F)(F)F)c(Cl)c2)n1 (single isomer, unassigned) [Example 214, N-(1-(5-chloro-6-(2,2,2-trifluoroethoxy)pyridin-3-yl)ethyl)-6-methyl-2-propionamidopyrimidine-4-carboxamide]
Cc1cc(C(=O)N[C@H](C)c2cccc(C(F)(F)F)c2)cc(NC(=O)C(C)C)n1 (single isomer, unassigned) [Example 531]
Cc1cc(C(=O)NCc2cnc(OCC(F)F)c(Cl)c2)cc(NC(=O)C2CC2)n1 [Example 826, N-((5-chloro-6-(2,2-difluoroethoxy)pyridin-3-yl)methyl)-2-(cyclopropanecarboxamido)-6-methylisonicotinamide]
COc1nc(OCC(F)F)ccc1CNC(=O)c1cc(C)nc(NC(C)=O)c1 [Example 1156, 2-acetamido-N-((6-(2,2-difluoroethoxy)-2-methoxypyridin-3-yl)methyl)-6-methylisonicotinamide]
CCC(=O)Nc1cc(C(=O)NCc2ccc(OCC(F)F)c(C)c2)ccn1 [Example 989, N-(4-(2,2-difluoroethoxy)-3-methylbenzyl)-2-propionamidoisonicotinamide]
Cc1cc(C(=O)NC(C)c2cccc(SC(F)(F)F)c2)cc(NC(=O)C(C)C)n1 (single isomer, unassigned) [Example 1032, 2-isobutyramido-6-methyl-N-(1-(3-((trifluoromethyl)thio)phenyl)ethyl)isonicotinamide]
CC(=O)Nc1cc(C(=O)NC(C)c2cnc(OCC(F)F)c(C)c2)cc(C)n1 (single isomer, unassigned) [Example 556, 2-acetamido-N-(1-(6-(2,2-difluoroethoxy)-5-methylpyridin-3-yl)ethyl)-6-methylisonicotinamide]
CC(=O)Nc1cc(C(=O)N(C)Cc2cnc(OCC(F)(F)F)c(C)c2)cc(C)n1 [Example 394, 2-acetamido-N,6-dimethyl-N-((5-methyl-6-(2,2,2-trifluoroethoxy)pyridin-3-yl)methyl)isonicotinamide]
CCCC(=O)Nc1cc(C(=O)NCc2cnc(OCC(F)F)c(CC)c2)ccn1 [Example 933, 2-butyramido-N-((6-(2,2-difluoroethoxy)-5-ethylpyridin-3-yl)methyl)isonicotinamide]
Cc1cc(C(=O)NC(C)c2cnc(OCC(F)F)c(C)c2)nc(NC(=O)C2CC2)n1 (single isomer, unassigned) [Example 559, 2-(cyclopropanecarboxamido)-N-(1-(6-(2,2-difluoroethoxy)-5-methylpyridin-3-yl)ethyl)6-methylpyrimidine-4-carboxamide]
CCC(=O)Nc1cc(C(=O)NC(C)c2ccc(OCC(F)(F)F)nc2)ccn1 (single isomer, unassigned) [Example 11, 2-propionamido-N-(1-(6-(2,2,2-trifluoroethoxy)pyridin-3-yl)ethyl)isonicotinamide]
CCC(=O)Nc1cc(C(=O)NCc2ccc(O[C@H](C)C(F)(F)F)nc2)cc(C)n1 (single isomer, unassigned) [Example 318]
CC(NC(=O)c1ccnc(NC(=O)C2CC2)c1)c1cnc(OCC(F)(F)F)c(Cl)c1 (single isomer, unassigned) [Example 79, N-(1-(5-chloro-6-(2,2,2-trifluoroethoxy)pyridin-3-yl)ethyl)-2-(cyclopropanecarboxamido)isonicotinamide]
COc1cc(CNC(=O)c2ccnc(NC(=O)C3CC3)n2)cnc1OCC(F)(F)F [Example 444, 2-(cyclopropanecarboxamido)-N-((5-methoxy-6-(2,2,2-trifluoroethoxy)pyridin-3-yl)methyl)pyrimidine-4-carboxamide]
